Experimental data taken from ChEMBL document CHEMBL5465560, “Selectivity Literature for EUbOPEN Chemogenomic Library” (2024).
Blank lines part the entries; values can stand above or below the molecule they belong to.

How the values were obtained:
[1] = molecular target: T1, Receptor-interacting serine/threonine-protein kinase 1 (Homo sapiens) (UniProt Q13546); settings: at 10 µM
T1 sequence (whole entry): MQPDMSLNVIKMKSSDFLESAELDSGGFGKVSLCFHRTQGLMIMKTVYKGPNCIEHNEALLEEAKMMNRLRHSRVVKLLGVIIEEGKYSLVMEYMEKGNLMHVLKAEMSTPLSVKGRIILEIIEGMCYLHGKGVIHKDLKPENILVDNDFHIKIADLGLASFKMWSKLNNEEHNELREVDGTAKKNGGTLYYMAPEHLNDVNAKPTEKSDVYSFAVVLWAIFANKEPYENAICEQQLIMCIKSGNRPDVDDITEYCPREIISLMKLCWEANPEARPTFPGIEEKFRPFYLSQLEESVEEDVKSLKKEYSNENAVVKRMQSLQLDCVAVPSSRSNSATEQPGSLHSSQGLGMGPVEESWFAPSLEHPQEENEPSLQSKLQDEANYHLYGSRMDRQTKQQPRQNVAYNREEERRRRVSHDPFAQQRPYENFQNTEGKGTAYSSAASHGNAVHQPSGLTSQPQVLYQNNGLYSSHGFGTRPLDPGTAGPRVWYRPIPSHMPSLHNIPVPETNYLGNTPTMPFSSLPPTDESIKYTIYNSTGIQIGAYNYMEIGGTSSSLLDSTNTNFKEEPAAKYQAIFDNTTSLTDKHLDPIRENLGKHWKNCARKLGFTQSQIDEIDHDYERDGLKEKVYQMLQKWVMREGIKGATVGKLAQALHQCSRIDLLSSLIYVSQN

[2] = molecular target: Ribosomal protein S6 kinase alpha-5 (Homo sapiens) (UniProt O75582); assay: Selectivity interaction (KinomeScan (DiscoverX)) EUB0000655a RPS6KA5; settings: at 10 µM
Ribosomal protein S6 kinase alpha-5 (Homo sapiens), sequence (O75582 whole entry, looked up): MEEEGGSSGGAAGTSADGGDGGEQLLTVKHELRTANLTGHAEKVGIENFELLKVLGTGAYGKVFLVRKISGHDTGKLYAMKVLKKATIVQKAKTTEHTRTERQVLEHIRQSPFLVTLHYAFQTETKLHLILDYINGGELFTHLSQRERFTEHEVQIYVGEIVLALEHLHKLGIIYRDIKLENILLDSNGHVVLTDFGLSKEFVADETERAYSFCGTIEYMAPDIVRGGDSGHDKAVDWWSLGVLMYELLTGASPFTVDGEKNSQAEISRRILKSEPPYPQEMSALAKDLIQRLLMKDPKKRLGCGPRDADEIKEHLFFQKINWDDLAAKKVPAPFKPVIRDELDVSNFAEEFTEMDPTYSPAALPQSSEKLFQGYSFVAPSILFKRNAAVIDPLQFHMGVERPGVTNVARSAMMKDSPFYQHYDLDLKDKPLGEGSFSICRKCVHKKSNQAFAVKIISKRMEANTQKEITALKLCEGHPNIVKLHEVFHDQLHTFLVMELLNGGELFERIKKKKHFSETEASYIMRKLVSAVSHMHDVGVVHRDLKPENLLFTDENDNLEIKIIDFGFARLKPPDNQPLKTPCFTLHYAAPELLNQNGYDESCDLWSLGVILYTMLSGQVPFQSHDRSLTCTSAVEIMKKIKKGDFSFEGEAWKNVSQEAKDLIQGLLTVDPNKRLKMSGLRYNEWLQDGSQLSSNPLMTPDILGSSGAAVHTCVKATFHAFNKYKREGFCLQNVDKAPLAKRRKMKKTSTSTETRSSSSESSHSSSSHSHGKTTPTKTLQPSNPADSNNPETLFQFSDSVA

[3] = molecular target: Non-receptor tyrosine-protein kinase TYK2 (Homo sapiens, UniProt P29597); assay: Selectivity interaction (KinomeScan (DiscoverX)) EUB0000655a TYK2; settings: at 10 µM
Non-receptor tyrosine-protein kinase TYK2, sequence (P29597 whole entry): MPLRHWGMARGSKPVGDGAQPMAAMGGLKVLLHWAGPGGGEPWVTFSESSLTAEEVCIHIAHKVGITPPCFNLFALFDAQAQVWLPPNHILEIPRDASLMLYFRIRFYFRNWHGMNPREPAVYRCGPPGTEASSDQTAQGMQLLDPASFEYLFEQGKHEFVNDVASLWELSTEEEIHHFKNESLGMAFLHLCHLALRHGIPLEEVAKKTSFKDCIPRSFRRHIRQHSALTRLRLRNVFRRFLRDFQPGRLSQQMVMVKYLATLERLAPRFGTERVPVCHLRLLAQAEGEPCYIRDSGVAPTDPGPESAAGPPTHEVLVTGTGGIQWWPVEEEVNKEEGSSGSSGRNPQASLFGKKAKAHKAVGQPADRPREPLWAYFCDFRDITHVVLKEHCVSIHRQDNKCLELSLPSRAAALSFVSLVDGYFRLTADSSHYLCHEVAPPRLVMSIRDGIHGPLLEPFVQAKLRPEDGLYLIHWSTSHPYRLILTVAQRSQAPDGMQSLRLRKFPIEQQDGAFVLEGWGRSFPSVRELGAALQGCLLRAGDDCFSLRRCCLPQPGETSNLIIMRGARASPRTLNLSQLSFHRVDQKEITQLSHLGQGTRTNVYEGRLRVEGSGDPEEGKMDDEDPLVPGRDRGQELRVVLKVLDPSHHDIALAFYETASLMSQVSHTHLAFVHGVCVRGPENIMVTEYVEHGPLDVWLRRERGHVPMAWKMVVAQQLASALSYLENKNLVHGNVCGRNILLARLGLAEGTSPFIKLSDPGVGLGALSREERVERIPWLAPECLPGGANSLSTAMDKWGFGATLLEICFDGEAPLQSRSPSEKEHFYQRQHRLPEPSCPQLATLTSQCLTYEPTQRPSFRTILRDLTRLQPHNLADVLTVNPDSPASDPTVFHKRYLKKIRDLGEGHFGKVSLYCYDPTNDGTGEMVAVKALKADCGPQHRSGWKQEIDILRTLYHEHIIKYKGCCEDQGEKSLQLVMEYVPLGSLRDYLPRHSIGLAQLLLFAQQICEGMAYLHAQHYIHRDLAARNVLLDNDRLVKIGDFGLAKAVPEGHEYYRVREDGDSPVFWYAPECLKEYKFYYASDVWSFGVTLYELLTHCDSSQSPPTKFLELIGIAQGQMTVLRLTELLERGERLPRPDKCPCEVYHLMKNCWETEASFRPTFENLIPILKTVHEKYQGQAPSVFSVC

[4] = tested on: Tyrosine-protein kinase ABL1 (Homo sapiens), P00519 [F317I]; assay: (§1) Selectivity interaction (KinomeScan (DiscoverX)) EUB0000618a ABL1; settings: at 10 µM
[5] = tested on: Tyrosine-protein kinase ABL1 (Homo sapiens), P00519 [F317L]; assay: as §1; settings: at 10 µM
[6] = tested on: Tyrosine-protein kinase ABL1 (Homo sapiens), P00519 [Q252H]; assay: as §1; settings: at 10 µM
[7] = tested on: T2, Receptor-type tyrosine-protein kinase FLT3 (Homo sapiens), P36888 [D835H]; assay: Selectivity interaction (KinomeScan (DiscoverX)) EUB0000618a FLT3; settings: at 10 µM
T2 sequence (whole entry): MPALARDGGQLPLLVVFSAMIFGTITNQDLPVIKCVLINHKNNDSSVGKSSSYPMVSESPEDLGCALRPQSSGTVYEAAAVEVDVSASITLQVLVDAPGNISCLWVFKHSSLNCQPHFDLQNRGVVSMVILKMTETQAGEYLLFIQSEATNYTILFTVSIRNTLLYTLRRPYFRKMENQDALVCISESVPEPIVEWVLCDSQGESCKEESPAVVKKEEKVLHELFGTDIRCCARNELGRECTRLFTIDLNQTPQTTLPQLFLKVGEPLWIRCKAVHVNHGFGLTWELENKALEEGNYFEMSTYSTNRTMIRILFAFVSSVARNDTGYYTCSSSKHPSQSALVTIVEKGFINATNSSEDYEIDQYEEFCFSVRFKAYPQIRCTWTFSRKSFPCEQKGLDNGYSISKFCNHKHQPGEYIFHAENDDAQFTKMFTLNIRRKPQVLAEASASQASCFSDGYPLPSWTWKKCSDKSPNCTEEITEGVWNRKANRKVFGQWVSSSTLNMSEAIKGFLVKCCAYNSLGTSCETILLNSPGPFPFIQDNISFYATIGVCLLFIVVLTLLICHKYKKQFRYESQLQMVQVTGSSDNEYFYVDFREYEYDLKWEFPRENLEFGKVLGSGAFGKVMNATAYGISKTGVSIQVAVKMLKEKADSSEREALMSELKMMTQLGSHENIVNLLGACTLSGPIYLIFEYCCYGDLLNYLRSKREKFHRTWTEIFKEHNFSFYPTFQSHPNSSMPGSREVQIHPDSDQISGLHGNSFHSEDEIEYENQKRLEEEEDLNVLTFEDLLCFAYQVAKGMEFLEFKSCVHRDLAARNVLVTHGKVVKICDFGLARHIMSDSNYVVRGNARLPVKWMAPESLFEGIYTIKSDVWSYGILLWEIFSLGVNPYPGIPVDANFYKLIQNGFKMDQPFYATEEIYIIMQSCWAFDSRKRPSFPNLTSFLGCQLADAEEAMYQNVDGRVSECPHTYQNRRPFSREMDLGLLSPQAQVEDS

[8] = molecular target: Mitogen-activated protein kinase kinase kinase 9 (Homo sapiens) (UniProt P80192); assay: Selectivity interaction (KinomeScan (DiscoverX)) EUB0000607a MAP3K9; settings: at 10 µM
[9] = molecular target: Calcium/calmodulin-dependent protein kinase type 1D (Homo sapiens) (UniProt Q8IU85); assay: Selectivity interaction (Kinase panel (DSF assay)) EUB0001558a CAMK1D
Calcium/calmodulin-dependent protein kinase type 1D (Homo sapiens), sequence (Q8IU85 whole entry, looked up): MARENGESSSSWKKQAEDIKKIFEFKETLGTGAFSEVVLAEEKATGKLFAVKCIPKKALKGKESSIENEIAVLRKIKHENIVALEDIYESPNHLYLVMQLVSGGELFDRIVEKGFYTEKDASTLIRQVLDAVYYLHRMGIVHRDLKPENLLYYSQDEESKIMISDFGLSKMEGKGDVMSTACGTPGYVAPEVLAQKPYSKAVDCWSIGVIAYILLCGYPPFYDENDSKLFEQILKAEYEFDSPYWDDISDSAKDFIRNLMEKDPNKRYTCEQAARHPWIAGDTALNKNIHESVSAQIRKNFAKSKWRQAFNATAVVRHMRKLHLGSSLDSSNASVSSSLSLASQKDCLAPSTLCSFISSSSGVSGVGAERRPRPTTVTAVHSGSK

[10] = molecular target: Platelet-derived growth factor receptor beta (Homo sapiens, UniProt P09619); settings: at 10 µM
Platelet-derived growth factor receptor beta, sequence (P09619 whole entry): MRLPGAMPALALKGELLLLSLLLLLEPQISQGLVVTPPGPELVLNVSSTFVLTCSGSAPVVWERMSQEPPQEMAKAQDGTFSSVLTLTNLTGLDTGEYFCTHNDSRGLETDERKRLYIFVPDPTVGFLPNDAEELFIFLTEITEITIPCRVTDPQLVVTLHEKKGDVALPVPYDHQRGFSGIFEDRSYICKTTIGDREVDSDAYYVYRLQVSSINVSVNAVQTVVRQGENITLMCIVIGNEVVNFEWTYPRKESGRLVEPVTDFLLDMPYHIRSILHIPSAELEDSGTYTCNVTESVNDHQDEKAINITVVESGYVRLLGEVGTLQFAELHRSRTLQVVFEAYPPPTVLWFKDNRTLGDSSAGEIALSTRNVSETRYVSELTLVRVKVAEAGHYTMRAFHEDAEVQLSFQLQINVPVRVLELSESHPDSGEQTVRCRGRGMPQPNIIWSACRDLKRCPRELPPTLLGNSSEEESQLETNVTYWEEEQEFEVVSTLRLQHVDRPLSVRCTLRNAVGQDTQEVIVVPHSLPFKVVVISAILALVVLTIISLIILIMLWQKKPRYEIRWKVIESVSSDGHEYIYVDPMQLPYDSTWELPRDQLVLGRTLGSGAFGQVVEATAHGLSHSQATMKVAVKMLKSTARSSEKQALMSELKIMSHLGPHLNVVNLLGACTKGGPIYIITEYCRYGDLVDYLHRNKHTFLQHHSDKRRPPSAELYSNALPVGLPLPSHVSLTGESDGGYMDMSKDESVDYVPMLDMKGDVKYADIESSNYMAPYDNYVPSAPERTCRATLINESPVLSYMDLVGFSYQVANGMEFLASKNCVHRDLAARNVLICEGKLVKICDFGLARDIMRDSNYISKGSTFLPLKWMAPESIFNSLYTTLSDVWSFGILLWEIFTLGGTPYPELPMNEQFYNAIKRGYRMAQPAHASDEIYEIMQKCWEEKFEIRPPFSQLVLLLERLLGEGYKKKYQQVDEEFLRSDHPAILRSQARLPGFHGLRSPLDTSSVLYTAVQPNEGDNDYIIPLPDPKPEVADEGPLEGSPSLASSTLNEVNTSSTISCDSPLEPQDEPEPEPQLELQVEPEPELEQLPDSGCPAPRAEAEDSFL

[11] = molecular target: T3, Dual specificity mitogen-activated protein kinase kinase 6 (Homo sapiens) (UniProt P52564); assay: Selectivity interaction (ActivX KiNativ screen (kinase selectivity in THP-1 cell lysates)) EUB0000639a MAP2K6; type: subcellular; settings: lysate, at 0.01 µM
T3 sequence (whole entry): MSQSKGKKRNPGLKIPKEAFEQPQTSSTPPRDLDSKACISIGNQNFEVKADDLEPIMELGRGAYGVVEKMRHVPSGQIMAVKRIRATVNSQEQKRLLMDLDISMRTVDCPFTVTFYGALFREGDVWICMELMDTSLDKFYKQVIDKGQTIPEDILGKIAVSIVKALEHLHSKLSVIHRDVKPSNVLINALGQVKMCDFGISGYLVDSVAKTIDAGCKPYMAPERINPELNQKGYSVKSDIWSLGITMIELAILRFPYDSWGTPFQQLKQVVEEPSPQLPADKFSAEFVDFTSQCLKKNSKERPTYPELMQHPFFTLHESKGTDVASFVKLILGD

[12] = tested on: Phosphatidylinositol 4,5-bisphosphate 3-kinase catalytic subunit alpha isoform (Homo sapiens), P42336 [C420R]; assay: (§2) Selectivity interaction (Ambit KINOMEscan) EUB0000092b PIK3CA; settings: at 10 µM
Phosphatidylinositol 4,5-bisphosphate 3-kinase catalytic subunit alpha isoform (Homo sapiens), P42336 [C420R], sequence (P42336 whole entry C420R, canonical isoform): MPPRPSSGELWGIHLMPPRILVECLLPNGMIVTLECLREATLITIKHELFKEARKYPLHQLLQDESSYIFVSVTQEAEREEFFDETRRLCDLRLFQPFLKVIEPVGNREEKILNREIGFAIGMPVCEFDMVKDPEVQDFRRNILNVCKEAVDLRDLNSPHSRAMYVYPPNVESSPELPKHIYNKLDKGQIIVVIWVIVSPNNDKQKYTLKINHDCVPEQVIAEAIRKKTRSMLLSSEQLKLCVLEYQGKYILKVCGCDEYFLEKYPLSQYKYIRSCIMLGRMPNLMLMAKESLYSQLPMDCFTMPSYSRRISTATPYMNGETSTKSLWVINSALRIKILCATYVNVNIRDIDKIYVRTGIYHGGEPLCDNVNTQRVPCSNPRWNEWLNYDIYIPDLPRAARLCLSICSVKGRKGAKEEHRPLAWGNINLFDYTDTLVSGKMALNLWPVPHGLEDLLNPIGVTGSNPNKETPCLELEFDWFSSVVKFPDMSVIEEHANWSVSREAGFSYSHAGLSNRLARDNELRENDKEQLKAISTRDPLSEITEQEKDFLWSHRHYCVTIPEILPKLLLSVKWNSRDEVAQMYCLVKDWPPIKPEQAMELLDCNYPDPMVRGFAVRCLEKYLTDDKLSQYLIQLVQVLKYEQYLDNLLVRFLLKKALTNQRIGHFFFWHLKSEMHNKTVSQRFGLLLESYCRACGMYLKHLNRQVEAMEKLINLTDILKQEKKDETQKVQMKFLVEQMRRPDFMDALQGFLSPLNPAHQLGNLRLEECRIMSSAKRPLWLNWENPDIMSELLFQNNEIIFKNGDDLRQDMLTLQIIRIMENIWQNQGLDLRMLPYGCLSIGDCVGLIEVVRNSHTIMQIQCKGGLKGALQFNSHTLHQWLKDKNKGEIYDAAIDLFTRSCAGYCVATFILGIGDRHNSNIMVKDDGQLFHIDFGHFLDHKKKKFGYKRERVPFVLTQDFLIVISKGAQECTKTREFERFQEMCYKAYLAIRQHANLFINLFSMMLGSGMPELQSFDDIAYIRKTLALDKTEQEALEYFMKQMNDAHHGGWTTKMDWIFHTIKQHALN

[13] = tested on: Phosphatidylinositol 4,5-bisphosphate 3-kinase catalytic subunit alpha isoform (Homo sapiens), P42336 [E545K]; assay: as §2; settings: at 10 µM
Phosphatidylinositol 4,5-bisphosphate 3-kinase catalytic subunit alpha isoform (Homo sapiens), P42336 [E545K], sequence (P42336 whole entry E545K, canonical isoform): as the sequence (P42336 whole entry C420R, canonical isoform) above, with R420C, E545K counted along it

% of control [1]: 100%
Compound: CCN(CC)CCCCNc1ncc2cc(-c3cc(OC)cc(OC)c3)c(NC(=O)NC(C)(C)C)nc2n1

Compound: CN(C)CCOc1ccc(-c2nc(-c3ccncc3)c(-c3ccc4c(c3)CC/C4=N\O)[nH]2)cc1
% of control [2]: 100%
% of control [3]: 52%

Compound: O[C@H]1CC[C@H](Nc2ncc3nc(Nc4c(F)cc(F)cc4F)n([C@H]4CCOC4)c3n2)CC1
% of control [4]: 51%
% of control [5]: 55%
% of control [6]: 47%
% of control [7]: 67%

Compound: CNC(=O)Nc1ccc(-c2nc(N3CC4CCC(C3)O4)c3cnn(C4CCC5(CC4)OCCO5)c3n2)cc1
% of control [8]: 97%

Compound: CC(C)(O)[C@H](F)CN1Cc2cc(NC(=O)c3cnn4cccnc34)c(N3CCOCC3)cc2C1=O
dTM [9]: -0.1 K

Compound: Cc1cc([C@@H](C)Nc2ccccc2C(=O)O)c2nc(N3CCOCC3)cc(=O)n2c1 [AZD-6482]
% of control [10]: 100%

% of inhibition [11]: 7.4%
Compound: CC[C@@H]1[C@H](F)C(=O)N[C@@H]1COc1nccc2cc(C(N)=O)c(OC)cc12 [ZIMLOVISERTIB]

Compound: CCC(=O)N1CCN(c2ccc(-n3c(=O)ccc4cnc5ccc(-c6cnc7ccccc7c6)cc5c43)cc2C(F)(F)F)CC1
% of control [12]: 0.7%
% of control [13]: 0.6%
